{"source": "patent US8959984B2", "about": "“Proteome-wide quantification of small molecule binding to cellular target proteins” (priority 2007, dated 2015)", "key": {"[1]": {"target": "SNRPG (Homo sapiens, UniProt P62308)", "sequence (P62306 whole entry)": "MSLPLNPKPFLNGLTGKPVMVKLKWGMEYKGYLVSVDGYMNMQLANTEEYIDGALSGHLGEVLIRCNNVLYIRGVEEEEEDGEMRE", "sequence (P62304 whole entry, further chain)": "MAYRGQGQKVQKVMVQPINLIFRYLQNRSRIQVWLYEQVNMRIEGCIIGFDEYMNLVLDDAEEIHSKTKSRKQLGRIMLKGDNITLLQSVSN", "sequence (P62308 whole entry)": "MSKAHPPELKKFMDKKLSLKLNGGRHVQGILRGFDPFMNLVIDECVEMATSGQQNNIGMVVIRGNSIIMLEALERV", "experiment": "binding to AX14596 beads (HeLa lysate, SILAC MS)", "set-up": "endogenous in cells; host or cells: HeLa S3", "description": "Differentially SILAC-encoded cell lysates were either incubated with the inhibitor beads displaying immobilized AX14596 or control resin devoid of ligand. In parallel, the supernatant from the first binding step was subjected to a second incubation with the AX14596 resin (FIG. 4). The resulting three elution fractions were combined, resolved by gel electrophoresis, proteolytically digested and the relative abundance of the retained proteins quantified. Proteins showing considerable binding to the control resin were identified as non-specific interactors and therefore not considered further. […] These target-specific ratios were similar in “label switch” experiments (FIGS. 6a and 6c). The binding equilibrium was determined in parallel control SILAC experiments as well as the excess of the immobilized compound over its cellular targets, the excess preferably being a molar excess (FIG. 7 and FIG. 8).\nCysteine carbamidomethylation was set as a fixed modification and N-acetyl protein and oxidized methionine were allowed as variable modifications. Spectra that were determined to result from heavy labeled peptides in the pre-search detection of SILAC partners by MaxQuant were searched with the fixed modifications Lys^4, Lys^8, Arg^6 and Arg^10, whereas MS/MS spectra for which no SILAC state could be assigned before database searching were searched with Lys^4, Lys^8, Arg^6 and Arg^10 as variable modifications. The mass tolerance was set to 5 ppm for monoisotopic precursor ions and to 0.5 Da for MS/MS peaks. The minimum peptide length was set to 6 amino acids and up to three missed cleavages and three isotopically labeled amino acids were permitted per peptide. The accepted false discovery rate (FDR) was 1% for the proteins and peptides. The cut-off for the posterior error probability (PEP) of peptides was set to 10%. Peptide PEPs were determined by generating Mascot score and peptide-length-dependent histograms for both the forward and the reverse hits and then deriving the probability of a false identification for a given top-scoring peptide using Bayes' theorem. The PEPs of peptides belonging to the same proteins were then multiplied. Each peptide sequence was considered only once with the lowest PEP determined in case of multiple sequencing of the same isotopic pattern or of peptide species with different SILAC, charge or modification states. Proteins were then sorted according to their products of their peptide PEPs and included until a FDR of 1% was reached according to the fraction of reverse proteins contained in the protein list. In addition to the FDR threshold applied for protein identification, proteins were only included when they were identified with at least two peptides (of which one was required to be unique for the protein) and quantified if at least on quantifiable SILAC pair was associated with them. Outliers were not removed as protein ratios were calculated as the median instead of the average of all peptide ratios. For peptides shared among different identified proteins, SILAC ratios were only considered for the ratio of the protein identified with the highest number of unique peptides. Protein ratios for the different in vitro association experiments were corrected for the initial SILAC pooling ratio, which was determined from the median of protein ratios in pooled SILAC-encoded cell extracts."}, "[2]": {"target": "T1, hydroxyacyl Coenzyme A dehydrogenase, type II isoform 1 (Homo sapiens, UniProt Q99714)", "T1 construct": "endogenous in cells; host or cells: HeLa S3", "T1 sequence (Q99714 1-261)": "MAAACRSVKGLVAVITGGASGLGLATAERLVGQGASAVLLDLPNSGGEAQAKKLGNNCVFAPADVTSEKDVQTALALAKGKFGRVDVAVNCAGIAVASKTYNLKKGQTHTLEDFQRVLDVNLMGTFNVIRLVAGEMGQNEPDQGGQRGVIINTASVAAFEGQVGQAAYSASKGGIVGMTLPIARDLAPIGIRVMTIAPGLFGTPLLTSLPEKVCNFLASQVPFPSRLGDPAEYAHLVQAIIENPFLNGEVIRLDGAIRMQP", "experiment": "binding to immobilized V16742 (IVA1/IVA2, HeLa lysate, MS)"}, "[3]": {"target": "T2, RIOK2 (Homo sapiens, UniProt Q9BVS4)", "T2 construct": "endogenous in cells; host or cells: HeLa S3", "T2 sequence (Q9BVS4 whole entry)": "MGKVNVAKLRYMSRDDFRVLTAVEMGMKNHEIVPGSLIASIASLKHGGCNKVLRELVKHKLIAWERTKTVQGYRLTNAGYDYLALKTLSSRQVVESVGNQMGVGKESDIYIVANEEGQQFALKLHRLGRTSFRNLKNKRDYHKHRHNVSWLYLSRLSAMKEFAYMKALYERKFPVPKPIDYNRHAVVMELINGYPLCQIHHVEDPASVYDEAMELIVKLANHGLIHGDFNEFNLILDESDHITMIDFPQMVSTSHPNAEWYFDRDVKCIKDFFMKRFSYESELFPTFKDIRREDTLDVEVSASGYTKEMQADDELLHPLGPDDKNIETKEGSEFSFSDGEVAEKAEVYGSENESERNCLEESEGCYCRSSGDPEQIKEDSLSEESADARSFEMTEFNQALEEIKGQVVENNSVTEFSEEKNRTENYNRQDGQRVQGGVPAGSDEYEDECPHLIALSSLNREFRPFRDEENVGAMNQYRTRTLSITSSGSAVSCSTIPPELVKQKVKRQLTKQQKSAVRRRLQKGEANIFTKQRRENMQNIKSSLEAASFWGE", "experiment": "binding to immobilized V16742 (IVA1/IVA2, HeLa lysate, MS)"}, "[4]": {"target": "T3, EphB2 (Homo sapiens, UniProt P29323)", "T3 sequence (P29323 19-1055)": "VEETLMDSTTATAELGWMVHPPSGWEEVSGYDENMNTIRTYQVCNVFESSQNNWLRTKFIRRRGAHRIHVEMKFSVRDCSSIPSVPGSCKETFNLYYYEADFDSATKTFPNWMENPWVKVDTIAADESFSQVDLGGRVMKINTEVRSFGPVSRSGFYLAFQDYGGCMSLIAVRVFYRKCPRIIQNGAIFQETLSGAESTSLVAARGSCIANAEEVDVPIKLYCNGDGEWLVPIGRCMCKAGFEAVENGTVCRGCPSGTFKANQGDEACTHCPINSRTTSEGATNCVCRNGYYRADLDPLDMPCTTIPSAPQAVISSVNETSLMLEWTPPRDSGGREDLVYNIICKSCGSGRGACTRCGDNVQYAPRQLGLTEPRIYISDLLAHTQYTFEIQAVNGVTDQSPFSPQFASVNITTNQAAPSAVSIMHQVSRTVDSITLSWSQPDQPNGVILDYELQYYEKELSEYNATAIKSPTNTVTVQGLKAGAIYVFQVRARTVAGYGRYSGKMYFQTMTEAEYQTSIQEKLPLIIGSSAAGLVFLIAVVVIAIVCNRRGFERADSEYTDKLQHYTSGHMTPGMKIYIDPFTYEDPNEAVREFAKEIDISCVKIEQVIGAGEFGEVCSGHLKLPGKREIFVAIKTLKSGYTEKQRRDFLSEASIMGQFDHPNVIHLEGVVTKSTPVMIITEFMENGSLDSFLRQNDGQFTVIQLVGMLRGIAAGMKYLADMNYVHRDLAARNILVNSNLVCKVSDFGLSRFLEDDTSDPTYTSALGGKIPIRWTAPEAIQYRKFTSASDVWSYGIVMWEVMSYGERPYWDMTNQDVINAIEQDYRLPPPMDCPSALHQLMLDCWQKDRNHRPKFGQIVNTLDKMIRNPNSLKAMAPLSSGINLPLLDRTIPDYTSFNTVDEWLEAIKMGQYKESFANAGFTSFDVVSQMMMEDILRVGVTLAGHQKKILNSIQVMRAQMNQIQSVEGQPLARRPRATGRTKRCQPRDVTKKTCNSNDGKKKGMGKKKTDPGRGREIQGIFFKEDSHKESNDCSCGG"}, "[5]": {"conditions": "average of two experiments, read-out: Kd Avg"}}, "note": "Like-named read-outs stand apart in the source and are kept apart here."}
{"smiles": "COc1cc2ncnc(Nc3ccc(F)c(Cl)c3)c2cc1OCCCN", "note": "[AX14596]", "values": [{"measurement": "Ki", "setting": "[1]", "result": 87.6, "unit": "µM"}, {"measurement": "r (3 mg/1 mg lysate)", "setting": "[1]", "result": 2.54}, {"measurement": "rAVERAGE (2. inc/1. inc)", "setting": "[1]", "result": 0.47}, {"measurement": "rAVERAGE (control/1. inc)", "setting": "[1]", "result": 0.16}]}
{"smiles": "CC(C)n1c(=O)ccc2cnc(Nc3ccc(OCCN)cc3)nc21", "note": "[V16742]", "values": [{"measurement": "Percent bound at various 16742 conc", "setting": "[2]; Experiment 1, 1.87 μM 16742", "result": 4.41, "unit": "%"}, {"measurement": "Percent bound at various 16742 conc", "setting": "[2]; Experiment 1, 8.74 μM 16742", "result": 4.37, "unit": "%"}, {"measurement": "Percent bound at various 16742 conc", "setting": "[2]; Experiment 1, 52 μM 16742", "result": 62.08, "unit": "%"}, {"measurement": "Kd", "setting": "[2]; Experiment 1, read-out: Kd", "result": 42.7, "unit": "µM"}, {"measurement": "Percent bound at various 16742 conc", "setting": "[2]; Experiment 2, 1.87 μM 16742", "result": 8.75, "unit": "%"}, {"measurement": "Percent bound at various 16742 conc", "setting": "[2]; Experiment 2, 8.74 μM 16742", "result": 10.79, "unit": "%"}, {"measurement": "Percent bound at various 16742 conc", "setting": "[2]; Experiment 2, 52 μM 16742", "result": 41.03, "unit": "%"}, {"measurement": "Kd", "setting": "[2]; Experiment 2, read-out: Kd", "result": 72.8, "unit": "µM"}, {"measurement": "Kd", "setting": "[2]; [5]", "result": 57.7, "unit": "µM"}, {"measurement": "Percent bound at various 16742 conc", "setting": "[3]; Experiment 1, 8.74 μM 16742", "result": 11.61, "unit": "%"}, {"measurement": "Percent bound at various 16742 conc", "setting": "[3]; Experiment 1, 52 μM 16742", "result": 58.06, "unit": "%"}, {"measurement": "Kd", "setting": "[3]; Experiment 1, read-out: Kd", "result": 42.6, "unit": "µM"}, {"measurement": "Percent bound at various 16742 conc", "setting": "[3]; Experiment 2, 1.87 μM 16742", "result": 1.55, "unit": "%"}, {"measurement": "Percent bound at various 16742 conc", "setting": "[3]; Experiment 2, 8.74 μM 16742", "result": 7.91, "unit": "%"}, {"measurement": "Percent bound at various 16742 conc", "setting": "[3]; Experiment 2, 52 μM 16742", "result": 48.34, "unit": "%"}, {"measurement": "Kd", "setting": "[3]; Experiment 2, read-out: Kd", "result": 60.8, "unit": "µM"}, {"measurement": "Kd", "setting": "[3]; [5]", "result": 51.7, "unit": "µM"}]}
{"smiles": "COc1cc2ncnc(Nc3ccc(F)c(Cl)c3)c2cc1OCCCN1CCOCC1", "note": "[gefitinib]", "values": [{"measurement": "rAVERAGE (10 nM/0 nM Gef.)", "setting": "[4]", "result": 0.88}, {"measurement": "rAVERAGE (100 nM/0 nM Gef.)", "setting": "[4]", "result": 0.90}, {"measurement": "rAVERAGE (1000 nM/0 nM Gef.)", "setting": "[4]", "result": 0.85}, {"measurement": "rAVERAGE (10000 nM/0 nM Gef.)", "setting": "[4]", "result": 0.33}]}
